Reference: ChEMBL document CHEMBL1201862, “PubChem BioAssay data set” (2004)
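Briefly, cells in 96-well plates were exposed to five compound concentrations for 48 h, and endpoints were estimated by linear interpolation. Abbreviation: GI50, concentration required for 50% inhibition of growth.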 Calls of active or inactive are those of the source. Rule as the data show it: active = GI50 up to about 1.1 µM and inactive = higher.

Experiments:
Experiment in all cases: inhibition of tumour cell growth, NCI panel, 48 h
[1] = system: MOLT-4
[2] = system: NCI-H23
[3] = system: MDA-N
[4] = system: Hs-578T
[5] = system: OVCAR-3
[6] = system: KM12
[7] = system: U-251
[8] = system: UACC-257
[9] = system: SK-MEL-5
[10] = system: NCI-H226
[11] = system: BT-549
[12] = system: HOP-62
[13] = system: HCT-116
[14] = system: CAKI-1
[15] = system: LOX IMVI
[16] = system: OVCAR-5
[17] = system: MDA-MB-435
[18] = system: UO-31
[19] = system: UACC-62
[20] = system: A549
[21] = system: TK-10
[22] = system: COLO 205
[23] = system: HCC 2998
[24] = system: RXF 393
[25] = system: SW-620
[26] = system: CCRF-CEM
[27] = system: MCF7
[28] = system: NCI/ADR-RES
[29] = system: DU-145
[30] = system: M14
[31] = system: SR
[32] = system: HOP-92
[33] = system: Malme-3M
[34] = system: EKVX
[35] = system: SK-MEL-28
[36] = system: SK-OV-3
[37] = system: OVCAR-4
[38] = system: SN12C
[39] = system: ACHN
[40] = system: MDA-MB-231
[41] = system: K562
[42] = system: RPMI-8226
[43] = system: A498
[44] = system: SF-295
[45] = system: SNB-19
[46] = system: SNB-75
[47] = system: OVCAR-8
[48] = system: T47D
[49] = system: NCI-H460
[50] = system: SF-539
[51] = system: HCT-15
[52] = system: PC-3
[53] = system: SF-268
[54] = system: 786-0
[55] = system: NCI-H522
[56] = system: HT-29
[57] = system: SK-MEL-2
[58] = system: IGROV-1

Measured: GI50

CCOC(=O)c1c(N2CCCC2)[nH]c(=O)c(C(c2ccc(Cl)c([N+](=O)[O-])c2)c2c(O)c(C(=O)OCC)c(N3CCCC3)[nH]c2=O)c1O
> 100 µM: [51]
inactive: [1] 46.6 µM | [2] 22 µM | [3] 24.5 µM | [4] 6.55 µM | [5] 29.9 µM | [6] > 100 µM | [7] 14.9 µM | [8] 41.5 µM | [9] 37.8 µM | [10] 63.5 µM | [11] 16.3 µM | [12] 27.4 µM | [13] 34 µM | [14] 24.4 µM | [15] 19.3 µM | [16] 30.2 µM | [17] 29.4 µM | [18] 24.7 µM | [19] 26.8 µM | [20] > 100 µM | [21] 19.2 µM | [22] > 100 µM | [23] > 100 µM | [24] 31.7 µM | [25] 33.3 µM | [26] 23.6 µM | [27] 28.6 µM | [28] 28.7 µM | [29] 60.8 µM | [30] 20.8 µM | [31] 40.3 µM | [32] 18.5 µM | [33] 38.9 µM | [34] 33.7 µM | [35] 35.3 µM | [36] 85.5 µM | [37] > 100 µM | [38] 36.2 µM | [39] 34.3 µM | [40] 22 µM | [41] 63.2 µM | [42] 42.9 µM | [43] 33 µM | [44] 37.6 µM | [45] 15.5 µM | [46] 9.86 µM | [47] 15.5 µM | [48] 28.1 µM | [49] > 100 µM | [50] 19.2 µM | [52] 28.1 µM | [53] 23 µM | [54] 27.2 µM | [55] 24.5 µM

COc1ccc(C(OC(=O)[C@H](O[Si](C)(C)C(C)(C)C)[C@@H](NC(=O)c2ccccc2)c2ccccc2)c2ccc(OC)cc2)cc1
active: [42] < 0.01 µM
> 100 µM: [51]
inactive: [1] 52 µM | [2] > 100 µM | [3] > 100 µM | [4] > 100 µM | [5] > 100 µM | [6] > 100 µM | [7] > 100 µM | [8] > 100 µM | [9] 77.1 µM | [56] > 100 µM | [10] > 100 µM | [57] > 100 µM | [11] > 100 µM | [12] > 100 µM | [13] > 100 µM | [14] > 100 µM | [58] > 100 µM | [15] > 100 µM | [16] > 100 µM | [17] > 100 µM | [18] > 100 µM | [19] > 100 µM | [20] > 100 µM | [21] > 100 µM | [22] > 100 µM | [23] 68.1 µM | [24] > 100 µM | [25] > 100 µM | [26] > 100 µM | [27] 65 µM | [28] > 100 µM | [29] > 100 µM | [31] 36.6 µM | [32] > 100 µM | [33] > 100 µM | [34] > 100 µM | [37] > 100 µM | [38] > 100 µM | [39] > 100 µM | [40] 48.3 µM | [41] 24.8 µM | [43] > 100 µM | [44] 3.75 µM | [45] > 100 µM | [46] > 100 µM | [47] > 100 µM | [48] > 100 µM | [49] > 100 µM | [50] > 100 µM | [52] > 100 µM | [53] > 100 µM | [54] > 100 µM | [55] > 100 µM
